Experimental findings from PMC7806782, “Tethering-induced destabilization and ATP-binding for tandem RRM domains of ALS-causing TDP-43 and hnRNPA1” (Scientific Reports, 2021) are described below.

What is called Kd is the concentration at which binding is half-saturated.

Holding throughout (experiment): 1H-15N HSQC NMR titration, one-site fit of chemical shift differences
Format in all cases: binding

Test [1] deals with T1, isolated hnRNPA1 RRM2 (94–184) (Homo sapiens, UniProt P09651).
T1 construct: printed as 90-residue
T1 sequence (P09651 94-184): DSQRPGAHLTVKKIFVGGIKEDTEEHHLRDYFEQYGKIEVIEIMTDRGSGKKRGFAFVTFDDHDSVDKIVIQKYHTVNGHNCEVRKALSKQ

For test [2], the target named is T2, tethered hnRNPA1 RRM1–RRM2 (5–184) (Homo sapiens, UniProt P09651).
T2 construct: ATP site in RRM2
T2 sequence (P09651 5-184): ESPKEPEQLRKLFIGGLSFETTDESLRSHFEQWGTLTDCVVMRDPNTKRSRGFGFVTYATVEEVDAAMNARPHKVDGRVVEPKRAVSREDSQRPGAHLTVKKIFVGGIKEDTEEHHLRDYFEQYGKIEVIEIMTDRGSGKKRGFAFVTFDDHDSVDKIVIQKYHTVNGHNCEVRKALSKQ

Test [3] addresses T3, isolated TDP-43 RRM2 (191–269) (Homo sapiens, UniProt Q13148).
T3 construct: gene TARDBP
From the text: 1H-15N HSQC NMR titration, one-site fit of chemical shift differences on isolated TDP-43 RRM2 (191–269) | isolated RRM2 is also able to bind ATP to induce large shifts

T3 sequence (Q13148 191-269): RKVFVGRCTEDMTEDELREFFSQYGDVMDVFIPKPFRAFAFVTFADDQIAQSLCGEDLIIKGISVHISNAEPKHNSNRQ

As to `Nc1ncnc2c1ncn2[C@@H]1O[C@H](COP(=O)(O)OP(=O)(O)OP(=O)(O)O)[C@@H](O)[C@H]1O` [ATP], the Kd was 7.7 mM in test [1], 4.9 mM in test [2] and 16.7 ± 0.9 mM in test [3].
